Consider 3 compounds from EP4741383A1, “COMPOUND AND USE THEREOF AS ANTI-CANCER DRUG” (Tyligand Bioscience (Shanghai) Limited, priority 2023, dated 2025).

This assay relates to HCT116. The assay can be described thus: CellTiter-Glo cell proliferation inhibition, HCT116. Type of assay: cell-based. Particulars: Homo sapiens, HCT-116; HCT116 (colorectal cancer cell line), 72 hours; read-out: Example IC50 (µM) HCT116. An excerpt:
This experiment used the CellTiter-Glo® Luminescent Cell Viability Assay kit from Promega to evaluate the inhibitory activity of the disclosed compounds on the proliferation of the following cell lines: 4T1 (mouse breast cancer cell line), A20 (mouse B-cell lymphoma cell line), A2780 (human ovarian cancer cell line), AsPC-1 (pancreatic cancer cell line), B16F10 (mouse melanoma cell line), BT549 (human breast cancer cell line), CT26 (mouse colon cancer cell line), EMT6 (mouse breast cancer cell line), HCT116 (colorectal cancer cell line), Jurket (acute leukemia cell line), KP-4 (pancreatic cancer cell line), LL/2 (mouse lung cancer cell line), MCF7 (breast cancer cell line), […] NCI-H358 (lung cancer cell line), NCI-H727 (gastric cancer cell line), NCI-1944 (lung cancer cell line), Pan 04.03 (pancreatic cancer cell line), SK-BR-3 (breast cancer cell line), THP-1 (leukemia cell line), TOV21G (ovarian cancer cell line), U87MG (glioblastoma cell line), and UM-UC-a (bladder cancer cell line).
All cell lines were purchased from Nanjing Kebai Biotechnology Co., Ltd. The following materials were also used in the experiment: RPMI-1640 media (HyClone, catalog number #SH30022.01), McCoy's 5A media (Thermo Fisher, catalog number #16600-082), MCDB 105 media (Sigma, catalog number #117-500), Medium 199 (Thermo Fisher, catalog number #11150-059), MEM media (Thermo Fisher, catalog number #11095-080), DMEM media (HyClone, catalog number #SH30027.01), fetal bovine serum (FBS) (ExCell, catalog number # M4530), Sodium Pyruvate (100Mm) (Thermo Fisher, catalog number #11360-070), and MEM NEAA (100X) (Thermo Fisher). […]
Cells were cultured according to the instructions provided by the cell supplier (Nanjing Kebai Biotechnology Co., Ltd.). […] Suspension or adherent cells were collected, and cell viability was determined using the trypan blue exclusion method, ensuring that cell viability was above 90%. […]
(ATP-based viability assays read luminescence as a measure of living cells.)

A word on the IC50: it is the concentration that inhibits the measured activity by half. Take `CC1(n2c(-c3ccc(NC(=O)C(=O)Nc4ccc(N5CCC6(CCOC6)CC5)cc4)cc3)cc3cc(F)c(-c4nnn[nH]4)cc32)CCC1` [Example 68]: the IC50 came out at 0.078 µM.
Next, `O=C(Nc1ccc(-c2csc(CO)c2)cc1)C(=O)Nc1ccc(-c2cc3cc(F)c(-c4nnn[nH]4)cc3n2C2CCC2)cc1` [Example 1]: 0.111 µM.
Under `O=C(Nc1ccc(-c2cc3cc(F)c(-c4nnn[nH]4)cc3n2C2CCC2)cc1)C(=O)Nc1ccc(N2CCC3(CCC(O)C3)CC2)cc1` (stereo not drawn) [Example 100] stands 0.044 µM.
